Read-outs that look alike come from different tables or passages of the source.
What was measured:
[1] = tested on: HIV-1; assay type: cell-based
Description: (A) TZM-bl cells were transfected with pNL4-3 provirus plasmid for 48 h in the presence or absence of 10 μM Fasnall or C75 or DMSO (0.01%). Intracellular expression of HIV-1 proteins was monitored by HIVIG-western blot, and β-actin was used as loading control. (B) Supernatant associated virion production was monitored using a p24 ELISA. (C) 48 hours post-transfection, cell culture supernatants were removed and incubated with fresh TZM-bl (indicator) cells for an additional 48 hrs. Values expressed as the mean±standard deviation, and are representative of three independent experiments. p-values were generated with student's t-test. Molecular weight markers (kD) indicated in right margin.
To test further the hypothesis that HIV-1 replication requires FASN activity during the late stages of viral replication, TZM-bl or SupT1 (data not shown) cells were transfected with a HIV-1 provirus (pNL43) in the presence or absence of Fasnall or C75. […] Thus, FASN inhibition reduces nascent HIV-1 virion production without reducing HIV-1 protein synthesis.

[2] = tested on: SKBR3 cells; assay: Caspase 3/7 activity assay; assay type: cell-based; conditions: SKBR3, 24 hours
Description: (§1) The assay was performed using a similar protocol to the one described by Fritz et al (Fritz et al., 2001). Cells were seeded at a density of 10,000 cells/well and treated with different concentrations of HS-106 or C75. After 24 hours, to each well, 50 μl of Caspase assay/lysis buffer (50 mM HEPES pH 7.5, 100 mM KCl, 5 mM EDTA, 10 mM MgC12, 10 mM CHAPS, 20% Sucrose, 10 mM DTT, 10 μM of (Z-DEVD)2-Rh110 (Santa Cruz Biotech) and complete protease inhibitor (Roche))was added. After 6 hours of incubation at 37° C., fluorescence was measured at Ex/Em: 485/535 nm.

[3] = tested on: BT474 cells; assay: Caspase 3/7 activity assay; assay type: cell-based; conditions: BT474, 24 hours
Description: as §1

[4] = tested on: HIV-1; conditions: for HIV-1 p24 production reduced by: PBMC
Description: Primary cell experiments were approved by the Ohio State University Institutional Review Board, protocol #2014H0001. Peripheral blood mononuclear cells (PBMC) were isolated from healthy donor by Ficoll-Paque centrifugation, stimulated in complete RPMI 1640 medium (Gibco, Carlsbad, Calif.) containing 10% FBS, 100 μg/mL penicillin/streptomycin and supplemented with 5 μg/mL phytohemaglutinin (PHA; Gibco) for 48 h, and maintained thereafter in complete RPMI medium supplemented with 20U/mL of interleukin-2 (Gibco). PBMCs were seeded in 24-well plate (2×10^5 cells/well) and triplicate wells were treated with 10 or 50 μM C75, HS-106, or with DMSO and subsequently infected with 10 ng/mL p24 equivalents of HIV-1LucR-T2A virus, which is derived from NL4-3 (Edmonds et al., 2010). Cells were washed 24 h post infection. Supernatants were collected 4 days post infection and p24 content analyzed by quantitative ELISA (Zeptometrix).

[5] = tested on: MCF7, MDA-MB-468, BT474 and SKBR3 cells; assay: Proliferation assay (Hoechst DNA content), aggressive breast cancer cell lines; assay type: cell-based; conditions: MCF7, MDA-MB-468, BT474, SKBR3
Description: MCF10A (5,000 cells/well), MCF7 (7,500 cells/well), MDA-MB-468 (5,000 cells/well), BT474 (7,500 cells/well), and SKBR3 (5,000 cells/well) were seeded in 96 well plates with 10% FBS 4 g/L glucose DMEM media except for MCF10A which was DMEM/F12 media. After 24 hours, cells were treated with different concentration of HS-106 or C75. Every 24 hours for five days, media from one of the plates was removed and plate was frozen at −80° C. After collecting all the time points, to each well 100 μl ddH2O was add and the plates were frozen again. Then 100 μI of Hoechst 33258 solution made in TNE buffer (1 μl from Hoechst stock (1 mg/ml in 1:4 DMSO:H20) in 1 ml of TNE (which contains 10 mM Tris, 2M NaCl and 1 mM Na2EDTA) and fluorescence was measured at Ex/Em: 355/460.

Structure (SMILES): Cc1sc2ncnc(NC3CCN(Cc4ccccc4)C3)c2c1C (racemic) [HS-106, N-(1-benzylpyrrolidin-3-yI)-5,6-dimethylthieno[2,3-d]pyrimidin-4-amine]
- HIV-1 p24 particle deposition into culture medium ([1]; TZM-bl, 10 μM, 48 h): significantly reduce HIV-1 p24 particle deposition into culture medium
- intracellular Gag levels ([1]; TZM-bl, 10 μM, 48 h): did not reduce intracellular Gag levels
- number of infectious HIV-1 particles ([1]; supernatants on fresh TZM-bl indicator cells): similarly reduced the number of infectious HIV-1 particles
- caspase activity relative to MCF10A cells [2]: 2 fold
- caspase activity relative to MCF10A cells [3]: 10 fold
- HIV-1 p24 production reduced by ([4]; 10 μM): 87%
- HIV-1 p24 production reduced by ([4]; 50 μM): 96%
- reduction of HIV-1 p24 production ([4]; primary PBMCs, 10 μM): approximately 10 fold
- inhibition of proliferation [5]: inhibited the proliferation of aggressive cell lines with similar potency to C75

Source: patent publication US11679111B2, “Fatty acid synthase inhibitors” (priority 2016, dated 2023)
